Measured values: ChEMBL document CHEMBL1201862, “PubChem BioAssay data set” (2004)
The source made the active and inactive calls.

How the values were obtained:
[1] = target: T1, Apoptotic protease-activating factor 1 (Homo sapiens, UniProt O14727); type: functional
T1 sequence (O14727 whole entry): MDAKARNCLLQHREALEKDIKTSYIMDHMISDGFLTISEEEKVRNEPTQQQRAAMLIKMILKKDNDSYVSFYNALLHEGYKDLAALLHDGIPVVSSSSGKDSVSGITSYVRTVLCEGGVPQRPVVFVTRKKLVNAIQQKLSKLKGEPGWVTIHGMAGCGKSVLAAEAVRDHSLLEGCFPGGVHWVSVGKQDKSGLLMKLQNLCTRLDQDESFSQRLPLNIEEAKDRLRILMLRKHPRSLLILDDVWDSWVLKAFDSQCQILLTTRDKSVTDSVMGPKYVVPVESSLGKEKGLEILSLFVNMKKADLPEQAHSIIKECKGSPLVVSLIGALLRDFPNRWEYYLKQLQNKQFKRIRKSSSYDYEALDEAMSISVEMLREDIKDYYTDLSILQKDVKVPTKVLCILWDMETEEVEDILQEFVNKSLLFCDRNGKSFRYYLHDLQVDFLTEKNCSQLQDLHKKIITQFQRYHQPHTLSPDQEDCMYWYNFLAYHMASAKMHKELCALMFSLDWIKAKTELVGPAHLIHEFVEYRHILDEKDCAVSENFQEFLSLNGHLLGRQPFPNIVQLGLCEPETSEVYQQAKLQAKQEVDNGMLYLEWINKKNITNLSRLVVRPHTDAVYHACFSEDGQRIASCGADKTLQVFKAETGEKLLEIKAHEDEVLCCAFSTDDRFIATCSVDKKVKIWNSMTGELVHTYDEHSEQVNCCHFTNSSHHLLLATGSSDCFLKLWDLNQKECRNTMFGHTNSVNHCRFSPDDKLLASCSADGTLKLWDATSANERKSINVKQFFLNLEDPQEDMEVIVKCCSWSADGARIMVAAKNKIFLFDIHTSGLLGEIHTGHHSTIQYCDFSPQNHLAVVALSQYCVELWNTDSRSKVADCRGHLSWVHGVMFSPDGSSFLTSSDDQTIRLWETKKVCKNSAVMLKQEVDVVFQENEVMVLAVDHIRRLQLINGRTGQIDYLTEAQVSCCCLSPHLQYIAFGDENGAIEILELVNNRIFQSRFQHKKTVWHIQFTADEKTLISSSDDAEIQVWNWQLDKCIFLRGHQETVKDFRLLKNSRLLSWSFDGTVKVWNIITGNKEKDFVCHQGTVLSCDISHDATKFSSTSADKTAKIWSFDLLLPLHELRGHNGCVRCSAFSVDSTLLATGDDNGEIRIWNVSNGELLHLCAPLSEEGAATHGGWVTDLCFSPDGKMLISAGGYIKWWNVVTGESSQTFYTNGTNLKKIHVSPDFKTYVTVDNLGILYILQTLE

[2] = target: T2, Protein RecA (Mycobacterium tuberculosis, UniProt P9WHJ3); assay: Fluorescence Cell-Free Homogeneous Dose Retest to Identify Inhibitors of RecA-Intein Splicing Activity. [Related pubchem assays (depositor defined):AID2097, AID2223, AID489010, AID492950]; type: functional
T2 sequence (P9WHJ3 whole entry): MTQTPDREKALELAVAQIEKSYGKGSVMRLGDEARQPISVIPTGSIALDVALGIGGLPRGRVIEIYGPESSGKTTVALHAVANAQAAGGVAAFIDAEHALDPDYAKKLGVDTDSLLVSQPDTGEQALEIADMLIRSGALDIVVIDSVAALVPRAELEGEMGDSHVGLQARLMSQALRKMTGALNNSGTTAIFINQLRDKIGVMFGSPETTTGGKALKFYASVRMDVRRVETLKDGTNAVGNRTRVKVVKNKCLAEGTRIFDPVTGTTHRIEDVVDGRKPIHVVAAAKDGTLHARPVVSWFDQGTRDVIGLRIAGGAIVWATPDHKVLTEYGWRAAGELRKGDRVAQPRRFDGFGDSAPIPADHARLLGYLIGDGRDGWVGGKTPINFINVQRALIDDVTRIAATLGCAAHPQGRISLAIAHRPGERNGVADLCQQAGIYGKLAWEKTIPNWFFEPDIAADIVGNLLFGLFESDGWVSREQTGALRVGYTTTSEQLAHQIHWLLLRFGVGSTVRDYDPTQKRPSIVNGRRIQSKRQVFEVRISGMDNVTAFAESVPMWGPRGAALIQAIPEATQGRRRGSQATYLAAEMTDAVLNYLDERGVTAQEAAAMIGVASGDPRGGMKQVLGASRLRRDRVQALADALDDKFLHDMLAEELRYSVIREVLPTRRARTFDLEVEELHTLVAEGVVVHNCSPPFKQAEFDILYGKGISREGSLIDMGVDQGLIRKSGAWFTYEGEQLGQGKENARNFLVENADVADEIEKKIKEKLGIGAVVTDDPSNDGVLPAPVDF

| SMILES | IC50 [1] | EC50 [2] |
| --- | --- | --- |
| Cc1ccc(NC2=C/C(=N\S(=O)(=O)c3cccs3)c3ccccc3C2=O)c(C)c1 | 411 nM (active) | 185 nM (active) |
| COc1ccc(/C=N/NC(=O)c2nn(-c3ccccc3)c(=O)c3c(N)scc23)cc1 | 15300 nM (active) | 220 nM (active) |
| CC(=O)N(C1=C(Cl)C(=O)c2ccccc2C1=O)C1CCCCC1 | 3120 nM (active) | 1180 nM (active) |
